Test results from patent US20210177982A1, “MUCUS-PENETRATING PEPTIDES, DELIVERY VEHICLES AND METHODS OF THERAPY” (DNALite Therapeutics, Inc., priority 2018, published 2021).

Legend:
[1] = target: T1, Poliovirus Receptor (Homo sapiens, UniProt P15151); details: cited from earlier work
T1 sequence (P15151 21-417): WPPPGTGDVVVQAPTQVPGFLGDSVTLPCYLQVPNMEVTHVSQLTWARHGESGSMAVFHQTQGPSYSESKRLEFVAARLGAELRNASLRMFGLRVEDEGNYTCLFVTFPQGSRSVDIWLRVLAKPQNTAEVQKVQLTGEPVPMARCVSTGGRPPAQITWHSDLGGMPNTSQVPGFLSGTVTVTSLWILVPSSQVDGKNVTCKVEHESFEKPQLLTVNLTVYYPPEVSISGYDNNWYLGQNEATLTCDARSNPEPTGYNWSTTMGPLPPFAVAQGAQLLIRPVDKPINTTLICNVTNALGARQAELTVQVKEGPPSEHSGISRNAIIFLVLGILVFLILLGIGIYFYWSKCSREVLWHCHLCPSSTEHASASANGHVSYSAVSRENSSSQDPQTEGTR

[2] = In-vivo distribution assay (intrarectal, colon cryosections, epifluorescence); set-up: species or system BALB/c female mice; details: peptide-coupled DiI/DiO lipid nanoparticle, 30 μg DNA intrarectally, colon after 4 hours, compared to base lipid nanoparticle
Procedure: Three separate lipid nanoparticle formulations were prepared, one coupled to SEQ ID NO: 29, another coupled to transactivator of transcription peptide (TAT; SEQ ID NO:37) and the last without any coupling, all carried plasmid DNA and included 0.5% mol DiI and DiO labeling. 30 μg of DNA encapsulated in the DiI/DiO lipid nanoparticle are dosed intrarectally in BALB/c female mice (Charles River Laboratory, MA) anesthetized under 1-3% isofluorane. After 4 hours, the mice are euthanized under 25% CO2 and the colon is removed and embedded in optimal cutting temperature (OCT) media. The OCT media sections are flash frozen at −80 degrees Celsius and intestinal sections are taken in a cryostat. Epifluorescence images are taken of crypts under 531 nm excitation with 593 nm emission and overlaid with brightfield illumination. FIGS. 32A-32B.

[3] = pH 7 (No salt); cited from earlier work
[4] = 25° C., RP-HPLC, Ac-X-G-A-K-G-A-G-V-G L-amide; cited from earlier work

Row | Compound | interaction with the Poliovirus Receptor [1] | distribution of the particle at the surface of the intestinal epithelial cells [2] | Fauchere Score [3] | ΔtR(Gly), pH 2, 20 mM H3PO4 [4] | ΔtR(Gly), pH 2, 20 mM TFA [4] | ΔtR(Gly), pH 5, 10 mM PO4 Buffer [4] | ΔtR(Gly), pH 7, 10 mM PO4 Buffer +50 mM NaCl [4] | ΔtR(Gly), pH 7, 10 mM PO4 Buffer +50 mM NaClO4 [4] | ΔtR(Gly), pH 7, 10 mM PO4 Buffer, No Salt [4]
1 | TVDNPASTTNKDKLFAV [SEQ ID NO. 28] | has been shown to interact with the Poliovirus Receptor | – | – | – | – | – | – | – | –
2 | GRKKRRQRRRPQ (Human immunodeficiency virus) [SEQ ID NO. 37] | – | reduced the distribution of the particle at the surface of the intestinal epithelial cells | – | – | – | – | – | – | –
3 | N[C@@H](Cc1c[nH]c2ccccc12)C(=O)O [Trp] | – | – | 2.250 | 32.3 | 32.4 | 33.2 | 33.0 | 33.7 | 32.9
4 | N[C@@H](Cc1ccc(O)cc1)C(=O)O [Tyr] | – | – | 0.960 | 15.4 | 14.7 | 15.2 | 16.0 | 15.1 | 15.4
5 | O=C(O)[C@@H]1CCCN1 [Pro] | – | – | 0.720 | 9.4 | 9.0 | 9.4 | 10.4 | 9.9 | 9.7
6 | N[C@@H](CC(=O)O)C(=O)O [Asp] | – | – | −0.770 | 2.2 | 1.6 | −1.0 | −0.8 | −7.6 | −0.9
7 | C[C@H](N)C(=O)O [Ala] | – | – | 0.3 | 3.6 | 2.8 | 3.3 | 4.1 | 3.4 | 3.9
8 | CC(C)C[C@H](N)C(=O)O [Leu] | – | – | 1.7 | 23.4 | 23.3 | 24.1 | 24.6 | 25.1 | 24.2
